Paper doi:10.1101/2021.05.29.446083v1 (biorxiv, 2021)
Changes are numbered by the printed parent chain.

How the values were obtained:
5-HT1F [1] = biological target: T1, 5-HT1F (Homo sapiens, UniProt P30939, F310A); assay: NanoBiT Gi recruitment assay; assay type: cell-based
T1 sequence (P30939 1-366 F310A): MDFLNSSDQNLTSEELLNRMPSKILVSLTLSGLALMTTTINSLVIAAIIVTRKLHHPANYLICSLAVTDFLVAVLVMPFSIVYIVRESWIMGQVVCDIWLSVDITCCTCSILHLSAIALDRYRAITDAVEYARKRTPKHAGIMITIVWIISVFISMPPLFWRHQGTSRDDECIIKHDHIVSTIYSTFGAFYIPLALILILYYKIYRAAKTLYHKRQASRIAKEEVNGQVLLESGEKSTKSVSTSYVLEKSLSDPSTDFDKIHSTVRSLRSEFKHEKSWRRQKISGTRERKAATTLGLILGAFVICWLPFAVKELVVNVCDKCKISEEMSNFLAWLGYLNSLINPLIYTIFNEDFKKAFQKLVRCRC

5-HT1F [2] = biological target: T2, 5-HT1F (Homo sapiens, UniProt P30939, I104A); assay: NanoBiT Gi recruitment assay; assay type: cell-based
T2 sequence (P30939 1-366 I104A): T1 sequence (P30939 1-366 F310A) with I104A, A310F

5-HT1F–Gi1 complex = 5-HT1F–Gi1 complex (Homo sapiens, UniProt P30939); assay: cryo-EM structure, […] Å; settings: orthosteric and extended binding pocket; 10 μM lasmiditan, pH 7.4
5-HT1F [3] = biological target: T3, 5-HT1F (Homo sapiens, UniProt P30939); assay: NanoBiT Gi recruitment assay; assay type: cell-based
T3 sequence (P30939 1-366): T1 sequence (P30939 1-366 F310A) with A310F

In the case of `CN1CCC(C(=O)c2cccc(NC(=O)c3c(F)cc(F)cc3F)n2)CC1` [lasmiditan], the EC50 (5-HT1F [1]) is reported as over 100000 nM, the EC50 (5-HT1F [2]) is reported as 2190 nM and the “cryo-EM structure, 3.4 Å” value (5-HT1F–Gi1 complex) is reported as “the lasmiditan-bound 5-HT1F–Gi complex”. It also gave an EC50 (5-HT1F [3]) of 30.2 nM.
